{
  "source": "patent US20120083471A1",
  "about": "“Novel Compounds, Pharmaceutical Compositions Containing Same, Methods of Use for Same, and Methods for Preparing Same” (priority 2008, published 2012)",
  "key": {"[1]": {"tested_on": "DIO mice", "assay": "Chronic 16 d FSG67 treatment of DIO mice with indirect calorimetry and pair-fed group", "type": "in vivo, mouse", "details": "5 mg/kg ip daily", "protocol": "(§1) For acute studies, 6 DIO or lean mice were treated with a single dose of FSG67 (20 mg/kg, i.p.) approximately 3 hrs past lights-on. Animal weights and food consumption were measured 18 h after treatment. Following euthanization, the hypothalmuses were harvested to measure orexigenic and anorexigenic neuropeptide gene expression. In the chronic studies, DIO mice, 4-10 animals per group, were treated daily with FSG67 (5 mg/kg, i.p.) or with RMPI vehicle for the days indicated. Body weight and food intake were measured daily. In one study, a cohort of mice was pair-fed with amounts consumed by the FSG67-treated animals and mice were monitored with indirect calorimetry (Oxymax Equal Flow System®, Columbus Instruments, Columbus, Ohio). Measurements of VO2 (ml/kg/hr) and VCO2 (ml/kg/hr) were performed and recorded every 15 min. The respiratory exchange ratio (RER) was calculated by Oxymax software, version 5.9, and is defined as ratio of VCO2 to VO2 33. After completion of the treatment course, animals were euthanized by CO2 inhalation 4 hrs following the final dose of FSG67. Tissues were harvested immediately for RNA extraction; serum was collected and analyzed for glucose, cholesterol, and triglyceride measurements (Bioanalytics, Gaithersburg, Md.). Fresh liver tissue was snap frozen in liquid N2, sectioned, and stained with hematoxylin and Oil Red O to visualize triglyceride droplets.\nIn the second chronic treatment study, indirect calorimetry was utilized to study changes in metabolism during GPAT inhibition. DIO mice (8 per group) were treated with FSG67 (5 mg/kg, ip), or pair-fed to FSG67 treated animals. Indirect calorimetry was utilized to measure changes in oxygen consumption (VO2) and respiratory exchange ratio (RER) between pair-fed and treated animals. After 16 days of treatment, the FSG67 treated mice lost 9.5±0.6% of body mass, pair-fed lost 5.5±0.9%, while vehicle controls gained 3.5±1.3% (FIG. 12c). The weight loss in the FSG67 treated animals was significant compared to both vehicle controls and pair-fed animals (p<0.0001, 2-way ANOVA). […] RER was reduced in FSG67 treated mice (0.732±0.002) compared to pair-fed (0.782±0.006) (p<0.0001, 2-way ANOVA) (FIG. 12f) indicating increased use of fatty acids for fuel in the FSG67 treated animals. The combination of increased VO2 and reduced RER in the FSG67 treated animals are consistent with increased fatty acid oxidation and energy utilization which likely contribute to their reduced body mass compared to the pair-fed controls."}, "[2]": {"tested_on": "lean mice", "assay": "Intracerebroventricular FSG67 treatment of lean mice", "type": "in vivo, mouse", "details": "for weight lost: within 24 h", "protocol": "Chronic lateral cerebroventricle cannulas. For experiments requiring intracerebroventricular (i.c.v.) administration of compounds, mice were outfitted unilaterally with chronic indwelling cannulas aimed at the lateral cerebroventricle. After mice recovered from surgeries for one week, cannula placements were assessed by measuring food intake in response to i.c.v. neuropeptide Y (NPY, American Peptide Co., CA). Mice were given NPY (0.25 ηmol/2 μl injection) or sterile 0.9% saline vehicle via the i.c.v. cannula, and allowed 1-h access to grain-based pellets during the light phase. Mice that ate at least 0.5 g of food after NPY were used in the experiments. Eleven mice were given a 2 μL injection of RPMI-1640 without glucose (Cambrex, Md.) for vehicle control. Three days later, six mice received a 100 nmole dose of FSG67 in the vehicle while 5 mice received 320 nmoles of compound.\nWe administered FSG67 icy to determine whether GPAT inhibition acts centrally to reduce food intake. Lean mice were treated with FSG67 icy at doses 100 and 320 nmoles (approximately […] less than the 5 mg/kg single day systemic dose). Within 24 h, mice treated with 100 nmoles lost 0.75±0.4 g (p=0.016) while the 320 nmole group lost 1.8±0.3 g (p=0.0003); vehicle controls gained 0.43±0.1 g and 0.33±0.1 g respectively (FIG. 15a). The animal weight was regained within 48 h without a significant rebound (data not shown). […] Within 48 h, the animals began eating normally with slight hyperphagia in the 320 nmole group on days 3 and 4 (data not shown)."}, "[3]": {"tested_on": "lean mice", "assay": "Acute single-dose FSG67 treatment of lean mice (body weight, food intake)", "type": "in vivo", "details": "single 20 mg/kg ip", "text": "DIO and lean mouse models. All animal experimentation was done in accordance with guidelines on animal care and use as established by the Johns Hopkins University School of Medicine IACUC. DIO C57BL6J male mice were obtained from Jackson Laboratory (Bar Harbor, ME) and fed a synthetic diet comprised of 60% calories from fat, 20% from carbohydrate, and 20% from protein (5.2 kcal/g) post-weaning through the experimental procedures (D12492i, Research Diets, Inc., New Brunswick, N.J.). For lean animal studies, twelve-week old C57BL6J male mice (Jackson Laboratory, Bar Harbor, Me.) were fed rodent chow comprised of 13% calories from fat, 58% from carbohydrate, and 29% from protein (4.1 kcal/g) (Prolab RMH 2500, PMI Nutrition International Inc., Brentwood, Mo.). Mice were maintained in 12 hr light-dark cycle at 25° C. for 1 week for acclimatization prior to treatment. In all studies, FSG67 (FASgen, Inc., Baltimore, Md.) was dissolved in RPMI 1640 (Invitrogen, Carlsbad, Calif.).\nas §1, with “In the chronic studies, DIO mice, 4-10 animals per group, were treated daily with FSG67 (5 mg/kg, i.p.) or with RMPI vehicle for the days indicated.” left out, “After completion of the treatment course, animals were euthanized by CO2 inhalation 4 hrs following the final dose of FSG67.” left out, “Fresh liver tissue was snap frozen in liquid N2, sectioned, and stained with hematoxylin and Oil Red O to visualize triglyceride droplets.” left out"}},
  "data": [
    {"smiles": "CCCCCCCCCS(=O)(=O)Nc1ccccc1C(=O)O", "note": "[Compound 15g, 2-(Nonylsulfonamido)benzoic acid]", "values": [
      {"measurement": "average daily food consumption", "setting": "[1]; 16 days", "value": "2.0 ± 0.1", "unit": "g/day"},
      {"measurement": "body mass lost", "setting": "[1]; 16 days", "value": "9.5±0.6", "unit": "%"},
      {"measurement": "reduction of average daily food consumption vs vehicle", "setting": "[1]; 16 days", "value": 33, "unit": "%"},
      {"measurement": "average RER", "setting": "[1]; indirect calorimetry", "value": "0.732±0.002"},
      {"measurement": "average VO2, % of pre-treatment value", "setting": "[1]; indirect calorimetry", "value": "106.5±1.1", "unit": "%"},
      {"measurement": "weight lost", "setting": "[2]; 100 nmoles icv", "value": "0.75 ± 0.4", "unit": "g"},
      {"measurement": "chow intake", "setting": "[2]; 320 nmole icv", "value": "2.5 ± 0.3", "unit": "g"},
      {"measurement": "weight lost", "setting": "[2]; 320 nmole icv", "value": "1.8 ± 0.3", "unit": "g"},
      {"measurement": "mouse weight one day following treatment", "setting": "[2]; 100 and 320 nmole icv", "value": "significantly reduced"},
      {"measurement": "significant reduction in food intake", "setting": "[2]; 100 vs 320 nmole icv, listed as FSG67", "value": "only occurred in the 320 nmole treatment group"},
      {"measurement": "time to regain animal weight", "setting": "[2]; icv, without significant rebound", "value": "≤ 48", "unit": "h"},
      {"measurement": "food consumption", "setting": "[3]; lean mice", "value": "1.4 ± 0.2", "unit": "g"},
      {"measurement": "food consumption, % of vehicle control", "setting": "[3]; lean mice", "value": 33, "unit": "%"},
      {"measurement": "overt toxicity", "setting": "[3]; lean or DIO mice", "value": "No overt toxicity"}
    ]}
  ]
}
